We go through one compound from article PMC10887214 (Biomedicines, 2024).

As a reminder, the IC50 is the concentration that inhibits the measured activity by half.

For one assay, the system named is TRPV1. Also on record: method as in PMID 17279090. The following applies: HEK cells overexpressing TRPV1; read-out: IC50 as antagonist of TRPV1; cited from earlier work.
The next assay deals with KV7.1 (Homo sapiens, UniProt P51787).
The subject of assay [1] is C57BL/6J mice. Briefly: Open Field (OF). It counts as in vivo, mouse. To be noted: i.p. The method, then:
(§1) Animal housing. Forty-eight Male C57BL/6J mice were purchased from Janvier Labs (Le Genest-Saint-Isle, France) and were time-specifically housed in a 12 h light-dark cycle (lights on at 7 am), with ad libitum water and food in conditioned rooms (22 °C, humidity ~60%).
(§2) Behavior assays. All mice were subjected to a behavioral test battery that consisted of several general performance tasks of locomotor activity, exploratory and anxiety-like behavior, and learning and memory. Mice were divided into four groups: Vehicle, OS (2 mg/kg), WIN55 (0.5 mg/kg), or OS + WIN. Each group consisted of 7–14 mice that received two i.p injections before each test, with a 10 min interval between each injection. Veh + Veh were injected with PBS. Veh + WIN were injected with PBS and WIN55. Veh + OS were injected with PBS and OS. OS + WIN were injected with OS and WIN55. PBS was used as vehicle as it was used for dilution of drugs. Tests were performed in the order described below after 10 min of the last injection, with a 24 h interval between each test.
Open Field (OF): One day after the cage activity test, mice were tested in the OF paradigm. The OF aimed to test the OS, WIN, and OS + WIN effect on animal locomotion and exploratory behavior. Animals were placed in the test room one hour before starting the test. For the OF, animals were placed in a plexiglass box (60 × 60 × 60 cm) divided into three zones (center, periphery, and corners) for 10 min and left free to explore. Total distance and time in zones were counted. Here, more time in the center meant an anxiolytic effect, and a higher distance walking meant an increase in locomotor activity. For this test, we used Veh (n = 8), OS (n = 10), WIN (n = 7), OS + WIN (n = 8).

For a further assay, the target named is MOR (Homo sapiens, UniProt P35372).
A further assay concerns the target T1, CB1 receptor (hCB1) (Homo sapiens, UniProt P21554).
T1 construct: expressed in transfected cells; host or cells: Xenopus laevis oocytes (cRNA injection)
Briefly: Two-electrode voltage-clamp, CB1-GIRK1/GIRK2-RGS4 coupling system expressed in Xenopus oocytes. It counts as cell-based.

Assay [2] has as its system C57BL/6J mice. The experiment in a line: Home cage activity test. It counts as in vivo, mouse. The following applies: i.p., OS 2 mg/kg. How it is done: as §1, §2
Cage activity assessment: At P60, animals were moved to the cage activity room for one hour before injections for habituation.. The cage activity assessment consists of placing the mice in a transparent box which is placed between three infrared sensors (two on the cage’s side and one in its front) that count how many times the mice cross the infrared beams. The times of beams crossed in each 30 min were counted over a period of 24 h and used as a locomotor activity measurement. In addition, we also compared the total number of beams crossed during the day and night period. For this test, we used Veh (n = 10), OS (n = 9), WIN (n = 11), OS + WIN (n = 8).

For assay [3], the system named is C57BL/6J mice. Briefly: Elevated Plus Maze (EPM). In kind it is in vivo, mouse. The following applies: i.p., OS 2 mg/kg, WIN 0.5 mg/kg. How it is done: as §1
as §2, with “Tests were performed in the order described below after 10 min of the last injection, with a 24 h interval between each test.” left out
Elevated Plus Maze (EPM): EPM was used to assess the effects of OS, WIN, and OS + WIN on anxiety-like behavior. […] Time in open and closed arms was measured over 10 min. Anxiety index (AI) was calculated using the following equation: AI = 1 − [([time the animal remained in the open arms (seconds)/test duration] + [input frequency in the open arms/total number of entries])/2]. […]

A further assay has as its system chimeric CB1/2 receptor. Briefly: Two-electrode voltage-clamp, chimeric CB1/2-GIRK1/GIRK2-RGS4 coupling system expressed in oocytes. To be noted: 100 μM OS + 0.5 μM WIN55,212-2. In general terms: Two-electrode voltage clamp is typically applied to oocytes expressing channels or transporters.
Assay [4] relates to C57BL/6J mice. The experiment in a line: Morris Water Maze (MWM). In kind it is in vivo, mouse. To be noted: i.p., OS 2 mg/kg. The method, then:
as §1, §2
Morris Water Maze (MWM): MWM [32] was used to assess the effects of OS, WIN, and OS + WIN in memory one day after the EPM test. MWM is a gold standard test to assess learning and memory consisting of 10 days of training and two probe trials in a pool with water at a temperature of 26 °C, with one submersed platform invisible to mice. Each mouse could try to find the platform for 100 s, four times per day, with an inter-trial interval of 15–30 min. In each trial, animals were released randomly from each of the four starting positions. This protocol of training was repeated for ten days (training sessions). The platform was removed on the 6th and 11th days, and the animals were left free to swim for 100 s (probe trials). Right after the first probe trial (day 6), animals were trained again with the platform at the same place. During the training sessions, the mean latency to find the platform for the session was calculated for each animal as the average of the four trials of the day. During the probe trials, the pool was divided into four equal virtual quadrants, and the time spent in the target quadrant (TQ) (i.e., the quadrant where the platform was located during the training sessions) was assessed as a measure of memory retention. For this test, we used Veh (n = 9), OS (n = 8), WIN (n = 8), OS + WIN (n = 14).

T1 sequence (P21554 whole entry): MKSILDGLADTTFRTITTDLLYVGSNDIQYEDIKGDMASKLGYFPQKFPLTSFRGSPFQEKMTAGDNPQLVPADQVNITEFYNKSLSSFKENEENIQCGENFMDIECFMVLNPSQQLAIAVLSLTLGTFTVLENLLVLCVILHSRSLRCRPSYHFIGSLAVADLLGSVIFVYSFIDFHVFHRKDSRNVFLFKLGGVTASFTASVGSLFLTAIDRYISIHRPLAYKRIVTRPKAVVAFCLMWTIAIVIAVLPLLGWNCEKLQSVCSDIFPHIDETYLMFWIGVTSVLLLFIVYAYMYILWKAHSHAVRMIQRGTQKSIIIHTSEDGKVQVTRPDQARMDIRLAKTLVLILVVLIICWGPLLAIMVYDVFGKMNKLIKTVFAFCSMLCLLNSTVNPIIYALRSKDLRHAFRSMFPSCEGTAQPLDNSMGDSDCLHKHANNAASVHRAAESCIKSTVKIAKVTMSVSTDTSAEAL
KV7.1, sequence (P51787 whole entry): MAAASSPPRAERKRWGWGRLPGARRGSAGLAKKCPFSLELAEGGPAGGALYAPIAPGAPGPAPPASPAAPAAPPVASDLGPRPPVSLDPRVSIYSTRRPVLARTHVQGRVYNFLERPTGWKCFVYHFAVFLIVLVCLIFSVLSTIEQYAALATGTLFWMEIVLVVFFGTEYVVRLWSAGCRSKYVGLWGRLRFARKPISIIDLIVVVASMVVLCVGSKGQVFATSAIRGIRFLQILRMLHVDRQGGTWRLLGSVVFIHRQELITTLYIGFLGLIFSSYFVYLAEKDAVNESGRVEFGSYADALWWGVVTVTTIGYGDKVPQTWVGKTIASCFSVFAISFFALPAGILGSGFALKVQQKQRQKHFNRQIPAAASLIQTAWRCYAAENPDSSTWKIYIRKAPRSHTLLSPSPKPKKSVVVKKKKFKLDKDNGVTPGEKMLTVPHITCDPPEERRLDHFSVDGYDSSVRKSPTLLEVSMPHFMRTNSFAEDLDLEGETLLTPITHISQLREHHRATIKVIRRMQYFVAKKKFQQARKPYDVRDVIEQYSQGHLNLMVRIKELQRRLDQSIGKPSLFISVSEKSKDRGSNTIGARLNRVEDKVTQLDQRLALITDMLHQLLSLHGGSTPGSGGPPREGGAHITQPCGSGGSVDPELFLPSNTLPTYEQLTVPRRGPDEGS
MOR, sequence (P35372 whole entry): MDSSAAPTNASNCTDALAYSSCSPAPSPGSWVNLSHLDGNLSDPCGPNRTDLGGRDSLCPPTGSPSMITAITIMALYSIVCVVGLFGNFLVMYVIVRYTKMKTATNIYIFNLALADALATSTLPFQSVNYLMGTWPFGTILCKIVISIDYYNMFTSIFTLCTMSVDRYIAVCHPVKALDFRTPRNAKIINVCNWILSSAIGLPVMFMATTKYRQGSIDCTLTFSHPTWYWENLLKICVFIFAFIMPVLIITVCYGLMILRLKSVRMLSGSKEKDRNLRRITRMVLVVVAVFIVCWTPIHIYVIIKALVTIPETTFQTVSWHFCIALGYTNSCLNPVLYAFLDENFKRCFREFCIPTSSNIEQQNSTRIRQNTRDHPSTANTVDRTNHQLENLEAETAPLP

With `CCCCCCCC/C=C\CCCCCCCC(=O)NCCc1c[nH]c2ccc(O)cc12` [OS, oleoyl serotonin], the IC50 in the assay on TRPV1 was 2570 nM; on CB1 receptor (hCB1) (IC50 of blocking CB1 receptor activated by WIN55,212-2, 0.03 μM WIN + OS) it was 2.4 µM; at CB1 receptor (hCB1) (IC50 of blocking CB1 receptor activated by WIN55,212-2, 0.1 μM WIN + OS) it was 6.5 µM; at CB1 receptor (hCB1) (IC50 of blocking CB1 receptor activated by WIN55,212-2, 0.3 μM WIN + OS), 16.2 µM; on CB1 receptor (hCB1) (IC50 of blocking CB1 receptor activated by WIN55,212-2, 1 μM WIN + OS), 34.1 µM. Also, the “Activity in selectivity screening” value at KV7.1 and on MOR was “did not show significant activity” each time. Besides, the “Effect of OS injection on the WIN-induced decrease of time in the periphery” value with C57BL/6J mice [1] (OS 2 mg/kg before WIN 0.5 mg/kg) is recorded as “prevented this decrease”. Moreover, in the assay on C57BL/6J mice [1] (OS 2 mg/kg, WIN 0.5 mg/kg, 10 min test), the “Total distance walked in open field (locomotion)” value is reported as “neither OS nor WIN affected locomotion”. Further, the “Time spent in the center zone of open field” value in the assay on C57BL/6J mice [1] (OS 2 mg/kg, WIN 0.5 mg/kg, compared with Veh + WIN) is on record as “spent more time than the WIN-only group”. The “Effect on WIN55,212-2-induced inward K+ currents (IK,WIN+OS)” value on CB1 receptor (hCB1) (100 μM OS co-applied with 0.3 μM WIN55,212-2) was “inhibited”. Also, the “Effect of OS alone on IK,basal” value at CB1 receptor (hCB1) (100 μM OS, 20–30 s, in HK) is “did not change the response of IK,basal”. Moreover, the Mode of antagonism result at CB1 receptor (hCB1) (against WIN55,212-2) was “competitively blocked”. Besides, in the assay on C57BL/6J mice [2], the “Overall locomotion during the night in home cage vs control” value is listed as “moved more in the cage compared to the control group”. Moreover, the “Cage activity (beam crossings) 2 h after the beginning of night phase” value in the assay on C57BL/6J mice [2] (WIN 0.5 mg/kg, 21 h) is reported as “notably increased cage activity”. In the assay on C57BL/6J mice [3], the “Anxiety-like behavior (time in open and closed arms, anxiety index)” value is given as “did not exhibit significant effects”. Moreover, the “Effect on WIN55,212-2-induced receptor-dependent inward K+ currents (IK,WIN)” value in the assay on chimeric CB1/2 receptor is reported as “did not change the response”. In addition, in the assay with C57BL/6J mice [4] (100 s trial), the “Time spent in the target quadrant (TQ), first probe trial” value is on record as “more than 25 s”. Further, the “Performance in first probe trial vs control (time in target quadrant)” value in the assay with C57BL/6J mice [4] (day 6) is reported as “performed worse than the control”.
